Experimental data reported in article PMC6050537, “Inhibition of low-density lipoprotein receptor degradation with a cyclic peptide that disrupts the homodimerization of IDOL E3 ubiquitin ligase” (Chemical Science, 2018).
Where two headings read alike, the source gives them in different places. Residues, ends and D or L forms follow the SMILES beside them.

Assays:
[1] = Solubility (qualitative remarks); assay type: physicochemical
HepG2 cells = conditions: concentrations up to 100 μM, 72 h
Description: (§1) Cell viability was assessed using the CellTiter-Glo 2.0 assay (Promega) according to the manufacturer's instructions. Briefly, cells were plated at a density of 3.3 × 10^4 cells per well in a 96 well plate and incubated overnight (37 °C, 5% CO2). Cells were treated with increasing concentrations of inhibitor and incubated in lipoprotein depleted serum for 72 h (37 °C, 5% CO2). The plate was equilibrated to room temperature for 30 min prior to the addition an equal volume of CellTiter-Glo 2.0 (Promega) reagent to media. The contents were mixed for 2 min on an orbital shaker to induce cell lysis and the plate incubated at room temperature for 10 min prior to the detection of a luminescent signal.
(§2) Supplementary Figure 11. Cellular viability following peptide treatment. The viability of
(§3) (a ) He pG2 a nd (b ) DIDOL He p G2 cells was determined following treatment with increasing
(§4) concentrations of TAT-RINGPe p2 and TAT-ScramPep (100 µM). […]

ΔIDOL HepG2 cells = conditions: concentrations up to 100 μM, 72 h
Description: as §1, §2, §3, §4

[2] = biological target: T1, 6× His-tagged, full-length IDOL (Homo sapiens, UniProt Q8WY64); assay: Surface plasmon resonance (SPR) affinity for IDOL; assay type: binding; conditions: for Kd: SPR, immobilized full-length His-IDOL, saturation at highest concentrations not observed; for binding to IDOL by SPR: linear counterparts of the cyclic peptides
T1 construct: Full length IDOL (1–445) was cloned with a TEV cleavable N-terminal 6xHis tag; made in house; host or cells: Spodoptera frugiperda Sf21 (baculovirus, pFastbac1)
T1 sequence (Q8WY64 1-445): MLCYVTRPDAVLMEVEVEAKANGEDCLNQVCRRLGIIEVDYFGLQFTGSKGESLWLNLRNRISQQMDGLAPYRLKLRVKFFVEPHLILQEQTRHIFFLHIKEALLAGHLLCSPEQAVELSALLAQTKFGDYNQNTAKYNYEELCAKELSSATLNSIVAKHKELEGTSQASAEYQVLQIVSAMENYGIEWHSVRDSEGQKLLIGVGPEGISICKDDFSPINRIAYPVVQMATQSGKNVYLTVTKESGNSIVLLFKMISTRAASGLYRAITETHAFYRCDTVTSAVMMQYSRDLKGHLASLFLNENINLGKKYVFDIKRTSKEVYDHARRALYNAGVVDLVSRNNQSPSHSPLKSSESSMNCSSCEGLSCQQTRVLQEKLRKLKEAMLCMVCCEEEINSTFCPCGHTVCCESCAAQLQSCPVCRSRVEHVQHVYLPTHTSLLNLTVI
Source text: We initially assessed the affinity of the 6 selected cyclic peptides for IDOL by surface plasmon resonance (SPR). Although saturation at the highest concentrations was not observed, due to hydrophobic effects, Kd values could be determined for five peptides (Table 1). […] The hit rate for our IDOL screen is in line with that for previous SICLOPPS screens.[21],[25] It should be noted that although cyclo-CTIFLL and cyclo-CTLILF contain the same amino acids, changing the order in which these are arranged results in activity loss.
All measurements were performed on a Biacore S200 (GE healthcare) using running buffer 10 mM HEPES, 300 mM NaCl, 1 mM TCEP, 0.05% Tween 20 and 4% DMSO at pH 8.0. In brief, 6× His-tagged, full-length IDOL was immobilized on a NTA-chip (Xantec), to a final level of ∼6000 RU. The chip was pre-loaded with Ni^2+ to facilitate efficient capture of His-tagged protein onto the chip. The activity of the immobilized protein was confirmed using a reference compound.
Supplementary Figure 2. […] Saturation of binding was not observed due to the hydrophobic nature of the peptides
(1 picture or pasted object on this page, not shown here)

RING domain of IDOL = tested on: T2, RING domain of IDOL; assay: 1H 15N HSQC NMR binding to RING domain
T2 construct: IDOL RING domain (G356-I445) was expressed as TEV cleavable N-terminal HN6-Lysine-Tag; HN6-Lysine-Tag (TEV-cleavable) (N); made in house; host or cells: E. coli (pET vector)
Source text: (§5) The lead candidates, cyclo-CTIFLL and cyclo-CFFLYT, were next analyzed for binding to the RING domain of IDOL by ^1H ^15N HSQC NMR. We also assessed the binding of each peptide to the FERM domain of IDOL as a negative control. […] It should be noted that the 3 residues affected by cyclo-CFFLYT (named RINGPep1) form part of the PPI interface in the crystal structure of the homodimerized RING domains of IDOL (Fig. 1c and ESI Fig. 6 ^†).[15] Furthermore, mutation of V431R coupled with a L433R mutation is known to result in a dimer deficient IDOL.[15]
(§6) ^15N-labeled RING and FERM domains were prepared for NMR experiments by buffer exchange using Amicon Ultra-4 Centrifugal Filter Units with 3 kDa molecular weight cut-off membranes. Buffer conditions for the NMR studies were 50 mM TRIS-d11 pH 7.5, 200 mM NaCl, 3 mM TCEP, 10% (v/v) D2O for the RING domain and 25 mM TRIS-d11, 25 mM NaPi, pH 7.5, 300 mM NaCl, 3 mM TCEP, 10% (v/v) D2O for the FERM domain. The protein concentrations were 80 μM and 70 μM, for the RING and FERM domain respectively. Two-dimensional NMR SOFAST-HMQC titration experiments were carried out on a Bruker 600 MHz spectrometer equipped with a cryoprobe. […]

FERM domain of IDOL = tested on: T3, FERM domain of IDOL; assay: 1H 15N HSQC NMR binding to FERM domain (negative control)
T3 construct: made in house; host or cells: E. coli BL21
Source text: as §5, §6

6× His IDOL = biological target: T4, 6× His IDOL (Homo sapiens, UniProt Q8WY64); assay: Microscale thermophoresis (MST) binding to IDOL; conditions: full length His-IDOL (44 nM)
T4 construct: Full length IDOL (1–445) was cloned with a TEV cleavable N-terminal 6xHis tag; made in house; host or cells: Spodoptera frugiperda Sf21 (baculovirus, pFastbac1)
T4 sequence (Q8WY64 1-445): T1 sequence (Q8WY64 1-445)
Source text: We sought to improve the affinity of RINGPep1 prior to assessing its effect in cells. We used alanine-scanning to identify residues that were critical to the activity of RINGpep1; we constructed 5 SICLOPPS plasmids where each amino acid (except the set cysteine, which is required for intein splicing) was replaced with alanine. These plasmids were transformed into the IDOL RTHS and assessed for disruption of IDOL homodimerization by drop-spotting. […] We therefore synthesized a handful of RINGPep1 analogues with the second position containing a non-natural phenylalanine analogue. After purification, the affinity of each of these compounds for IDOL was assessed by MST. […] The ability of RINGpep2 to disrupt IDOL homodimerization was assessed in vitro using a competition assay in which increasing concentrations of IDOL were titrated into a 45 nM solution of dye-labelled IDOL. Binding of non-labelled IDOL to dye-labelled IDOL will be observed in the MST signal, allowing the Kd of IDOL homodimerization to be quantified. Using this approach, we measured a Kd of 2.9 ± 0.1 μM for IDOL homodimerization. The experiment was repeated in the presence of RINGpep2 (100 μM), with the expectation that the apparent Kd of IDOL homodimerization would increase in the presence of an inhibitor of IDOL homodimerization.
MST was performed on a Monilith NT.115 system (Nano Temper Technologies, DE). […]

In the case of `CC(C)C[C@@H]1NC(=O)[C@H](CC2CCCCC2)NC(=O)[C@H](Cc2ccccc2)NC(=O)[C@H](CS)NC(=O)[C@H]([C@@H](C)O)NC(=O)[C@H](Cc2ccc(O)cc2)NC1=O` [RINGPep2, cyclo-CF-Cha-LYT] (HELM PEPTIDE1{C.F.[Cha].L.Y.T}$PEPTIDE1,PEPTIDE1,1:R1-6:R2$$$V2.0), the “solubility in the assay buffer” value ([1]; autoubiquitination assay buffer) is reported as “poor solubility” and the water solubility ([1]; compared with the 3-(1-naphthyl)-L-alanine analogue) is reported as “marginally better”.
For `CC(C)C[C@@H]1NC(=O)[C@H](CC2CCCCC2)NC(=O)[C@H](Cc2ccccc2)NC(=O)[C@H](CSSC[C@H](N)C(=O)NCC(=O)N[C@@H](CCCNC(=N)N)C(=O)N[C@@H](CCCCN)C(=O)N[C@@H](CCCCN)C(=O)N[C@@H](CCCNC(=N)N)C(=O)N[C@@H](CCCNC(=N)N)C(=O)N[C@@H](CCC(N)=O)C(=O)N[C@@H](CCCNC(=N)N)C(=O)N[C@@H](CCCNC(=N)N)C(=O)N[C@@H](CCCNC(=N)N)C(=O)N2CCC[C@H]2C(=O)N2CCC[C@H]2C(=O)N[C@@H](CCC(N)=O)C(=O)O)NC(=O)[C@H]([C@@H](C)O)NC(=O)[C@H](Cc2ccc(O)cc2)NC1=O` [Tat-RINGPep2], the toxicity (HepG2 cells) was “no toxicity” and the toxicity (ΔIDOL HepG2 cells) was “no toxicity”.
For `CC(C)C[C@@H]1NC(=O)[C@H](Cc2ccc(O)cc2)NC(=O)[C@H](CSSC[C@H](N)C(=O)NCC(=O)N[C@@H](CCCNC(=N)N)C(=O)N[C@@H](CCCCN)C(=O)N[C@@H](CCCCN)C(=O)N[C@@H](CCCNC(=N)N)C(=O)N[C@@H](CCCNC(=N)N)C(=O)N[C@@H](CCC(N)=O)C(=O)N[C@@H](CCCNC(=N)N)C(=O)N[C@@H](CCCNC(=N)N)C(=O)N[C@@H](CCCNC(=N)N)C(=O)N2CCC[C@H]2C(=O)N2CCC[C@H]2C(=O)N[C@@H](CCC(N)=O)C(=O)O)NC(=O)[C@H](CC2CCCCC2)NC(=O)[C@H]([C@@H](C)O)NC(=O)[C@H](Cc2ccccc2)NC1=O` [Tat-ScramPep], the toxicity (HepG2 cells) was “no toxicity” and the toxicity (ΔIDOL HepG2 cells) was “no toxicity”.
In the case of `CC[C@H](C)[C@@H]1NC(=O)[C@H](CC(C)C)NC(=O)[C@H](Cc2ccccc2)NC(=O)[C@H](CC(C)C)NC(=O)[C@H](CCCNC(=N)N)NC(=O)[C@H](CS)NC1=O` [cyclo-CRLFLI] (HELM PEPTIDE1{C.R.L.F.L.I}$PEPTIDE1,PEPTIDE1,1:R1-6:R2$$$V2.0), the Kd ([2]; read-out: Kd) is reported as about 3000 µM.
`CC[C@H](C)[C@@H]1NC(=O)[C@H](C(C)C)NC(=O)[C@H](C(C)C)NC(=O)[C@H](CO)NC(=O)[C@H](CS)NC(=O)[C@H](CC(C)C)NC1=O` [cyclo-CSVVIL] (HELM PEPTIDE1{C.S.V.V.I.L}$PEPTIDE1,PEPTIDE1,1:R1-6:R2$$$V2.0) showed a Kd ([2]; read-out: Kd) of about 1000 µM.
For `CC[C@H](C)[C@@H]1NC(=O)[C@H]([C@@H](C)O)NC(=O)[C@H](CS)NC(=O)[C@H](CC(C)C)NC(=O)[C@H](CC(C)C)NC(=O)[C@H](Cc2ccccc2)NC1=O` [cyclo-CTIFLL] (HELM PEPTIDE1{C.T.I.F.L.L}$PEPTIDE1,PEPTIDE1,1:R1-6:R2$$$V2.0), the Kd ([2]; read-out: Kd) was 20.9 ± 11 µM, the “chemical shift changes, RING domain of IDOL” value (RING domain of IDOL) was “did not observe any chemical shift changes” and the “chemical shift changes, FERM domain of IDOL” value (FERM domain of IDOL) was “did not observe any chemical shift changes”.
In the case of `CC[C@H](C)[C@@H]1NC(=O)[C@H](CC(C)C)NC(=O)[C@H]([C@@H](C)O)NC(=O)[C@H](CS)NC(=O)[C@H](Cc2ccccc2)NC(=O)[C@H](CC(C)C)NC1=O` [cyclo-CTLILF] (HELM PEPTIDE1{C.T.L.I.L.F}$PEPTIDE1,PEPTIDE1,1:R1-6:R2$$$V2.0), the Kd ([2]; read-out: Kd) is reported as about 10000 µM.
With `CC[C@H](C)[C@@H]1NC(=O)[C@H](Cc2ccccc2)NC(=O)[C@H](C(C)C)NC(=O)[C@H]([C@@H](C)O)NC(=O)[C@H](CS)NC(=O)[C@H]([C@@H](C)CC)NC1=O` [cyclo-CTVFII] (HELM PEPTIDE1{C.T.V.F.I.I}$PEPTIDE1,PEPTIDE1,1:R1-6:R2$$$V2.0) the Kd [2] was “No activity”.
With “CFFLYT [linear counterpart of cyclo-CFFLYT]” the “binding to IDOL by SPR” value [2] was “no binding observed”.
For “CTIFLL [linear counterpart of cyclo-CTIFLL]”, the “binding to IDOL by SPR” value [2] was “no binding observed”.
In the case of cyclo-CYLFT[Cha] [ScramPep], the “binding to IDOL by MST” value (6× His IDOL) is reported as “did not bind”.
